Consider 1 molecule from ChEMBL document CHEMBL3414512, “Discovery of orally active anticancer candidate CFI-400945 derived from biologically promising spirooxindoles: success and challenges” (Eur J Med Chem, 2015).

In general, IC50 refers to the midpoint of a concentration-inhibition curve. Read a low IC50 as higher potency. As a reminder, the EC50 is the midpoint of the concentration-response curve. A high value points to weaker potency.

The target in assay [1] is Serine/threonine-protein kinase PLK2 (Homo sapiens, UniProt Q9NYY3). As to the kind of experiment: Inhibition of PLK-2 (unknown origin).
A short description of assay [2]: Inhibition of SLC34A2/ROS (unknown origin). Also on record: species or system Homo sapiens.
Assay [3] addresses Serine/threonine-protein kinase PLK1 (Homo sapiens, UniProt P53350). As to the kind of experiment: Inhibition of PLK-1 (unknown origin).
Assay [4] addresses Fibroblast growth factor receptor 1 (Homo sapiens, UniProt P11362). As to the kind of experiment: Inhibition of FGFR1 (unknown origin).
Assay [5] has as its target Serine/threonine-protein kinase PLK3 (Homo sapiens, UniProt Q9H4B4). Description: Inhibition of PLK-3 (unknown origin).

Chain of Serine/threonine-protein kinase PLK2 (Q9NYY3 whole entry): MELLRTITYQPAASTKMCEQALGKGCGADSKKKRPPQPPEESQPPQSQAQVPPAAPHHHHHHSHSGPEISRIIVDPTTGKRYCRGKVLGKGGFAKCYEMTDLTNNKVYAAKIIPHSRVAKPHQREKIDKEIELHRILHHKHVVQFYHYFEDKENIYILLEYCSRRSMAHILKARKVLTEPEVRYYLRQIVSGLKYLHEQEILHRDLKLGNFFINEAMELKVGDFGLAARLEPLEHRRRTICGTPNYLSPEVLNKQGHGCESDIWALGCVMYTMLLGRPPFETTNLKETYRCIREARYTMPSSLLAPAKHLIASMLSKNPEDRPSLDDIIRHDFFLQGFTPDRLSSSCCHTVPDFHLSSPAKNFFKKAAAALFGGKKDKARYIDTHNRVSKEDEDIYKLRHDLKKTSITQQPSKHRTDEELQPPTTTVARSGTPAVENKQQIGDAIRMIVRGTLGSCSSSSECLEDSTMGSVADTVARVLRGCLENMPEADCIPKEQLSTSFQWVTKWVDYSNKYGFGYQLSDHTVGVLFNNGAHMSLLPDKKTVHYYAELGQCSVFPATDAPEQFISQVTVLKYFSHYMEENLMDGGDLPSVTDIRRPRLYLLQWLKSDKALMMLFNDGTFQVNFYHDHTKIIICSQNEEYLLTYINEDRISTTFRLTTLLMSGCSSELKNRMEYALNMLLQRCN
Chain of Fibroblast growth factor receptor 1 (P11362 whole entry): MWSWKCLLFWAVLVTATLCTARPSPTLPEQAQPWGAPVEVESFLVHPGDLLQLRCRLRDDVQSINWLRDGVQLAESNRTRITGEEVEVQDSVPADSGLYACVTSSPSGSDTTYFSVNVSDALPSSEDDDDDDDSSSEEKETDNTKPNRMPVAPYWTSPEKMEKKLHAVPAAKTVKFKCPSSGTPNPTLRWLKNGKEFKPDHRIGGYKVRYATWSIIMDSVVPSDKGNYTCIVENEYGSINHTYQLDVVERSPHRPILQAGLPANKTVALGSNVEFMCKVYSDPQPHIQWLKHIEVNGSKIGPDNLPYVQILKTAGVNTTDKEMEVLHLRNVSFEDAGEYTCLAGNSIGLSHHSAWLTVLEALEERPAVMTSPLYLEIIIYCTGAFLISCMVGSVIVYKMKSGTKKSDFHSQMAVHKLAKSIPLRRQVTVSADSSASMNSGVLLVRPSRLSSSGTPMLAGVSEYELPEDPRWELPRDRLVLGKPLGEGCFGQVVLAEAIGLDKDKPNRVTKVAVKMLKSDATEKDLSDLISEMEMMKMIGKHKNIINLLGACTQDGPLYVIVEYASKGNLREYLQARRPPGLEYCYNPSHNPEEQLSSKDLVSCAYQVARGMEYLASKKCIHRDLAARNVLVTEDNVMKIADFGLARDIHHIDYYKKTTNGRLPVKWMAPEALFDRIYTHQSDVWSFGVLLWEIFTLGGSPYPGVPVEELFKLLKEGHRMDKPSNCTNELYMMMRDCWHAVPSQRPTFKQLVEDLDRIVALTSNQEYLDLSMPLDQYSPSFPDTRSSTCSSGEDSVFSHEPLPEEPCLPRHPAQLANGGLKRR
Chain of Serine/threonine-protein kinase PLK3 (Q9H4B4 whole entry): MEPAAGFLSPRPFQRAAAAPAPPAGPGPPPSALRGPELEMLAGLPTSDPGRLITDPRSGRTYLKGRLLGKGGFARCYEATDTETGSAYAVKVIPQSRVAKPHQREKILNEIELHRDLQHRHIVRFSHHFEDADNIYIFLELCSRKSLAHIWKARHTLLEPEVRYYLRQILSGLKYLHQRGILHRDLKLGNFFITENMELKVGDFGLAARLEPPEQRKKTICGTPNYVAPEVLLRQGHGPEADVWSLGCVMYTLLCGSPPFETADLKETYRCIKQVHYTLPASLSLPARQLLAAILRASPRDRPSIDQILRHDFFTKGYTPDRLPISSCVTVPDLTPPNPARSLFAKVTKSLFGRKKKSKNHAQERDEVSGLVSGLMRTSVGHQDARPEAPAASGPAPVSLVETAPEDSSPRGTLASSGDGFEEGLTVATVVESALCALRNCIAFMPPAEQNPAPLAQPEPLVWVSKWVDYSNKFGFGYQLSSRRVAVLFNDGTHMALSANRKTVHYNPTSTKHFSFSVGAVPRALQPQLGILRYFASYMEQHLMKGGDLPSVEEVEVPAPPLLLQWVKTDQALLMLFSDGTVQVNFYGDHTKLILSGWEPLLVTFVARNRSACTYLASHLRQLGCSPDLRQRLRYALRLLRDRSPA
Chain of Serine/threonine-protein kinase PLK1 (P53350 whole entry): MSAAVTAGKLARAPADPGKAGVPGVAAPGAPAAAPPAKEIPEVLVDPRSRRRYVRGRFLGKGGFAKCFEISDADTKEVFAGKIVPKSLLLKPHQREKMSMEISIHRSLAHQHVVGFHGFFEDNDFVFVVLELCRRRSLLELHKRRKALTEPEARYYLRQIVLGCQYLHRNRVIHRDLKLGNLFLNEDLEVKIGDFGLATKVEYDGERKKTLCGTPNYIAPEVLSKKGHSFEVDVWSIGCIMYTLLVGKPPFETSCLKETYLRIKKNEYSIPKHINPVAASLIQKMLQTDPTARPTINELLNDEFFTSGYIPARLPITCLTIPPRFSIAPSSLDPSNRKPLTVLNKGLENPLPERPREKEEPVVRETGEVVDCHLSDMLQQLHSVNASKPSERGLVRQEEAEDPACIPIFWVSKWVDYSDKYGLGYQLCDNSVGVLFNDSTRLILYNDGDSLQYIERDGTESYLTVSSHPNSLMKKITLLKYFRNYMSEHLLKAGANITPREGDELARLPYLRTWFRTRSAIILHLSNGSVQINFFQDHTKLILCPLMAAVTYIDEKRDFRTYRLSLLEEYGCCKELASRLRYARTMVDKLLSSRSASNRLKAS

For the molecule `COc1ccc2c(c1)[C@]1(C[C@H]1c1ccc3c(/C=C/c4ccc(CN5C[C@@H](C)O[C@@H](C)C5)cc4)n[nH]c3c1)C(=O)N2` [OCIFISERTIB], the IC50 in assay [1], in assay [3] and in assay [5] was above 50000 nM in each case. Moreover, the figures for the EC50 in assay [2] and in assay [4] were 466 nM and 1100 nM, respectively.
